Entries after “also recorded” stand apart in the source; their conditions may differ. Structures can show the parent of a compound that is named as a salt. Where two headings read alike, the source gives them in different places.
Columns and labels:
[1] = Enzymatic hydrolytic cleavage in human plasma; format: in vitro ADME; settings: for half-life at 1000 µM: human, plasma
Experimental: Analytical Methods. A high pressure liquid chromatography (HPLC) method was developed for the determination of the rate constants. The chromatographic analysis was performed in a system consisting of Waters Associates Model 600-A Solvent Delivery System, Model U-6K Injector and Model 440 Dual Channel Absorbance Detector operated at 254 and 280 nm. A 30 cm×3.9 mm (internal diameter) reverse phase μBondpack C18 column (Waters Associates), operated at ambient temperature, was used for all separations. When plasma samples were analyzed, the column was protected with a 2.3 cm×3.9 mm (internal diameter) Guard Column (Waters) packed with μBondpack C18/Corasil packing material. The mobile phase used for the separation of 17 and its degradation product, 5, consisted of water, 1-hexane sulfonic acid in acetic acid (B-6 reagent, Waters), 0.1M triethanolamine and methanol (100:1:100:799). […] For the separation of compounds 10-16 and 18 and their degradation product 5, a mobile phase consisting of water, 1-hexane sulfonic acid in acetic acid (B-6 reagent, Waters), 0.1M triethanolamine and methanol (390:1:10:599) was used.
Determination of the Hydrolytic Rate Constants in Aqueous Solutions. A 0.01M phosphate buffer and 0.01N sodium hydroxide solution were prepared from freshly distilled deionized water. This ionic strength was maintained at 0.1M with sodium chloride. The pH of the phosphate buffer was determined at 37.0° C. with a pH meter standardized at this temperature. For determination of the hydrolytic rate constants, a fresh concentrated solution of the ester in methanol was added to the hydrolytic medium previously equilibrated to the desired temperature and mixed thoroughly to result in an initial concentration of about 5×10^-4 mol. liter^-1. All reactions were run under pseudo first order conditions. Samples of 25 μL were injected into the column at various time intervals and the pseudo first order rate constants were determined from disappearance of the compound by linear regression of natural logarithm of the peak height versus time plots. The half-life and standard error of the rate constant were calculated for each run.
Determination of the Enzymatic Hydrolytic Cleavage Rates in Human Plasma. The freshly collected plasma used was obtained from the Civitan Regional Blood Center, Inc. (Gainesville, Fla.) and contained about 80% plasma diluted with anticoagulant citrate phosphate dextrose solution, U.S.P. The plasma was stored in a refrigerator and used within one week from the date it was collected.
A portion of 50 μL of a freshly prepared solution of the compound in methanol was added to 10 mL plasma, previously equilibrated at 37.0° C. in a water bath, and mixed thoroughly to result in an initial concentration of 1×10^-3 mol. liter^-1. One mL samples of plasma were withdrawn from the test medium, mixed immediately with 4.0 mL ice cold 95% v/v ethanol, centrifuged and the supernatant analyzed by HPLC. The first order hydrolytic rate constant was determined as before in the aqueous solutions and the results are listed in TABLE II below.

[2] = tested on: blood pressure response to isoproterenol; test: Blood pressure response to isoproterenol in rats; format: in vivo, male Spraque-Dawley rats; settings: 6 mg/kg i.p.; 10 minutes after isoproterenol
Excerpt: Initial Drug Screening Protocol. Thirty-two male Spraque-Dawley rats (Blue Spruce Farms) initially weighing 300-450 gm were divided into seven different groups, each for a different drug to be tested: 12(n=4), 14(n=4), 17(n=5), 13(n=4) and 18(n=3), corresponding to the designated compounds 12, 14, 17, 13 and 18 (number of animals), respectively. The other two groups were controls (n=8, isoproterenol alone pretreated with carrier) and those treated with a known β-blocker, dl-propranolol (n=3). Ech animal was anesthetized with sodium pentobarbital (45 mg/kg) and the carotid artery was cannulated with PE-50 tubing. The cannula was subcutaneously threaded around the neck and exteriorized dorsally between the shoulder blades. Th cannula was filled with a heparin solution (300 μg/mL) and sealed with a solid 22 gauge stylet. The animals were housed in individual stainless steel cages, and two days were allowed for recovery from the surgery. Food and water were provided ad libitum. On the day of the experiment, the blood pressure and heart rate of each rat were monitored with a pressure transducer (Narco-Bio model P-1000) and the data recorded on a four-channel physiograph (Narco-Bio systems Marck IV). One hour was allowed as an equilibration period before any drugs were administered. All beta blockers were administered intraperitoneally at a dose of 6 mg/kg. Compounds 12 and 14 and dl-proranolol were dissolved in normal saline while compounds 13, 17 and 18 were dissolved in an ethanol: water solution (3:1). Depending on the trial, controls were administered the appropriate carrier. One hour after administration of the blocker, isoproterenol (Isuprel®, Wintrop Laboratories) was administered subcutaneously at a dose of 25 μg/kg. Blood pressures and heart rate also were recorded 3, 5, 10, 15, 20, 30, 45 and 60 minutes after isoproterenol administration. Both control and experimental animals were unrestrained and free moving in their home cage throughout the experiment. […] However, significant differences in the mean heart rate response amoung the 7 groups were observed: *p<0.005;**p<0.025. Comparisons between groups were made by the Newman-Keuls procedure with significance set at the 95% confidence interval. […] All data are shown as mean±standard error of the mean.
Symbols are the same as those described for FIG. 1. […] Data are shown as mean±standard error of the mean.

[3] = tested on: heart rate response to isoproterenol (β-adrenergic); test: Duration of action study, heart rate in rats; format: in vivo, male Sprague Dawley rats; settings: 6 mg/kg i.p.; for resting heart rate prior to isoproterenol: mean ± SEM
Experimental: Duration of Action Studies. An additional 38 male Sprague Dawley rats (Blue Spruce Farms) initially weighing 268 to 290 gm were anesthetized with sodium pentobarbital (45 mg/kg i.p.), and the carotid artery was cannulated as previously described. On the day of experimentation, after a one-hour equilibration period, initial baseline conditions of basal heart rate and mean blood pressures were recorded. The beta blocker (17) was administered intraperitoneally at a dose of 6 mg/kg. The drug was dissolved in an ethanol: water solution (3:1). This carrier was administered in the control rats. Isoproterenol (Isurprel®, Wintrop Laboratories) was then administered (25 μg/kg s.c.), either 15(n=13), 60(n=12) or 90(n=12) minutes after the beta blocker was administered. Blood pressures and heart rates were recorded at 3, 5, 10, 15, 20, 30, 45 and 60 minutes after isoproterenol administration in all three trials. Both control and experimental animals were unrestrained and free moving in their home cages throught the experiment. Heart rates and mean blood pressure were calculated from the data and a one-way ANOVA was determined at each time interval. The results are shown in FIG. 2 for control vehicle and compound 17 at 15(), 60() and 90() minutes prior to isoproterenol administration at time zero. Resting heart rates were similar in all 4 groups prior to administration of isoproterenol; 342±12; 375±14; 372±19 and 385±17 beats/minute, respectively. […] Data are shown as mean±standard error of the mean.

## CC(C)NCC(O)COc1ccc(CC(=O)OC2CC(C)(C)CC(C)(C)C2)cc1 (stereo not drawn) [Compound 17, 3,3,5,5-Tetramethylcyclohexyl 4-(2-hydroxy-3-isopropylamino)propoxyphenylacetate oxalate 3/4 hydrate]
[1]; 37.0 ± 0.1° C., ± SEM
  Observed first order hydrolytic rate constant k: 0.566 ± 0.027 min⁻¹
[1]; 37.0 ± 0.1° C., read-out: Half-life t1/2
  half-life at 1000 µM: 1.22 min
[1]; read-out: in vitro plasma half-life
  half-life at 1000 µM: ~1 min
[2]
  mean change in blood pressure at 10 minutes vs compound 18 group: significantly different from the group treated with compound 18
[3]; 15 or 60 minutes prior to isoproterenol 25 μg/kg s.c., FIG. 2, hydrate
  heart rate response to isoproterenol: attentuated heart rate response; also recorded: significant activity on heart rate
[3]; 15 minutes prior to isoproterenol
  resting heart rate prior to isoproterenol: 375±14 beats/minute
[3]; 60 minutes prior to isoproterenol
  resting heart rate prior to isoproterenol: 372±19 beats/minute
[3]; 90 minutes prior to isoproterenol, FIG. 2
  heart rate activity at 90 minutes: disappears at 90 minutes
[3]; 90 minutes prior to isoproterenol
  resting heart rate prior to isoproterenol: 385±17 beats/minute

From patent US4829086A, “Soft β-adrenergic blocking agents” (priority 1985, dated 1989)
